Assay results from paper PMC6272399, “Anti-Proliferative Effect and Induction of Apoptosis in Androgen-Independent Human Prostate Cancer Cells by 1,5-Bis(2-hydroxyphenyl)-1,4-pentadiene-3-one” (Molecules, 2015).
Entries after “also recorded” stand apart in the source; their conditions may differ.

Key:
[1] = test system: androgen-dependent prostate cancer cells; design: method as in PMID 21796654; settings: cited from earlier work
[2] = test system: WI-38 (human lung fibroblast cells); experiment: MTT cytotoxicity assay, normal WI-38; assay type: cell-based; settings: normal cell line, 72 h treatment, mean ± SD, read-out: EC50 Values (µM) of Compounds on Cell Lines WI-38
Description: Cell viability was determined by the MTT [3-(4,5-dimethylthiazol-2-yl)-2,5-diphenyltetrazolium bromide] assay, as previously described by Mosmann with modifications. Briefly, cells were detached from the tissue culture flask and pelleted by centrifugation at 1000 rpm for 5 min. Then, the density of the viable cells was counted using a haemocytometer. Cells were then plated in a 96-well flat bottom micro-titer plate (Nunc) at a concentration of 10^4 cells/mL and incubated in a 5% CO2 incubator at 37 °C overnight to allow the cells to adhere to the bottom of the wells. After 24 h, the media was aspirated off and replaced with fresh media containing sample compounds (curcumin and curcumin analogues) of seven different concentrations ranging from 1.56 µM–100 µM and incubated at 37 °C, 5% CO2 for 72 h. Separately, the sample compounds were prepared in a stock solution of 50 mM in 100% dimethyl sulfoxide (DMSO, Molecular Biology Grade, Sigma-Aldrich, St. Louis, MO, USA) and diluted in the culture media to a working concentration of 200 µM. Curcumin, the parent compound which was used as the positive control was also prepared in the similar manner. A two-fold serial dilution was done for each sample in triplicates down the columns of the plate, yielding a final volume and concentration of 100 µL in 0.2% DMSO in each wells. Following treatment, 50 µL MTT solutions (0.5 mg/mL in PBS) was added to each well and incubated for another 4 h at 37 °C in a humidified 5% CO2 incubator. The supernatant was replaced with 100 µL of DMSO and the optical density (OD) was measured at 570/650 nm using a micro-plate ELISA reader (Bio-Rad Laboratories, Hercules, CA, USA). The percentage of viable cells was calculated based on the ratio of the corrected absorbance of sample-treated cells to the corrected absorbance of the control (0.2% DMSO-treated cells) multiplied by 100. The percentage of cell viability was determined as follows: % Cell viability= OD of treated cells /OD of control ×100
For each compound tested, the EC50 value was generated from the log dose-response curves for each cell line using the Graphpad Prism version 5.04 for Windows (Graphpad Software, La Jolla, CA, USA). […] Cytotoxicity of each tested compound is expressed as the EC50 value. Based on the EC50 values, selectivity index (SX) value was also determined. Selectivity index is a special parameter applied as a selectivity indicator of tested compounds towards cancer cells. The SX represents the ratio of EC50 value obtained in toxicity testing using the normal cell lines to the EC50 values of the toxicity testing of the cancer cells, and then multiplied by 100. All the compounds were assessed for their potential toxicity against normal, non-cancerous cells. […] The SX values were calculated using the following equation: SX = EC50 (normal cells)/EC50 (cancer cells) × 100

DU 145 cells = experiment: AO/EB double staining, morphology and quantification of apoptotic and necrotic cells, DU 145; assay type: cell-based, human; settings: for necrotic cells: approximate
Description: Cell morphological changes were assessed by the differential staining DNA-intercalate fluorescent dyes acridine orange (AO) and ethidium bromide (EB). Cells (3 × 10^5) were seeded in a 6-well tissue culture plates, treated with MS17 at various concentrations (EC50, 2 × EC50, 3 × EC50) and incubated for 12, 24, 48 and 72 h time intervals. After incubation, cell pellets were suspended in 50 µL of cold PBS. To each samples, 10 µL of cell suspension was added with 1 µL of AO/EB dye mixture (1 part of 100 µg/mL of AO in PBS; 1 part of 100 µg/mL of EB in PBS) prior to microscopic examination. Ten microliter of the cell suspension mixed with the dye mixture was placed on a glass microscopic slide covered with a cover slip and was observed and photographed with a fluorescence microscope using a fluorescein filter (BX41, Olympus, Center Valley, PA, USA). A minimum of 200 total targeted cells were counted per sample and the percentage of cells from each population (viable, early apoptosis, late apoptosis and necrosis) was calculated. The experiment was conducted in triplicates. Untreated cells containing DMSO alone were used as negative control.

[3] = test system: caspase-3 activity in PC-3 cells; experiment: Caspase-3 colorimetric activity assay, PC-3; assay type: cell-based, human
Description: Caspase-3 activity was determined using the caspase-3 colorimetric assay kit (Sigma-Aldrich) according to manufacturer’s protocol. The assay is based on spectrophotometric detection of p-nitroanilide (pNA) a colored molecule, after its cleavage from the labeled substrate DEVD-pNA by the activity of caspase-3 enzyme. PC-3 and DU 145 cells were treated with MS17 at different concentrations (EC50, 2 × EC50, 3 × EC50) at various time points, 6, 12, 24, 48 and 72 h as appropriate. Following treatment, cells were washed with PBS and suspended with lysis buffer (50 mM HEPES, pH 7.4, 5 mM CHAPS, 5 mM DTT) for 30 min on ice at the concentration of 10^7 cells per 100 µL buffer. Cells were then spun for 30 min at 16,000× g, 4 °C. Protein lysate concentrations were measured based on the Bradford assay method using the Cayman Chemical protein determination kit (Cayman Chemical Company, Ann Arbor, MI, USA) based on the manufacturer’s protocol. Assay was performed on a 96-well micro-titer plate by adding equal amount of protein lysate (~100 µg) into wells containing the assay buffer (20 mM HEPES pH 7.4, 0.1% CHAPS, 5 mM DTT, 2 mM EDTA). Reaction was started by the addition of 10 µL of substrate Ac-DEVD-pNA (2 mM). The effect of Ac-DEVD-CHO, a caspase-3 inhibitor was also studied simultaneously on caspase-3 activity. Ten microliter of the inhibitor (200 µM) was added into the wells containing the protein lysate, assay buffer and the substrate. Caspase-3 activity was measured upon the release of pNA molecule, a pale yellow colored product using the micro-plate ELISA reader (Bio-Rad) at the wavelength of 405 nm. Relative caspase-3 activity was expressed as absorbance of enzyme activity compared with the control (untreated cells/DMSO only) based on the equation below: Relative caspase 3 activity= Absorbance of treated cells /Absorbance of control

Compound: O=C(C=Cc1ccccc1O)C=Cc1ccccc1O [MS17, 1,5-bis(2-hydroxyphenyl)-1,4-pentadiene-3-one]
- anti-androgenic effect [1]: exert anti-androgenic effect
- EC50 [2]: 5.2 ± 1.2 µM
- necrotic cells (DU 145 cells; DU 145, 4.2 µM, 48 h): approximately 10%
- morphological observation of cell nuclei (AO/EB) (DU 145 cells; DU 145, MS17-treated vs untreated): typical signs of apoptosis such as cell shrinkage, formation of apoptotic bodies and membrane blebbing
- necrotic cells (DU 145 cells; DU 145, all examined doses, 24 h): < 5%
- relative caspase-3 activity (treated vs untreated) ([3]; PC-3, 4.5, 9.0 and 13.5 µM, 48 h): increased significantly; also recorded: significant increase of caspase-3 activity
- relative caspase-3 activity, differences between concentrations ([3]; PC-3, 12, 24 and 72 h): no significant differences of caspase-3 activity
